# Source: US20200292528A1, “CELL CHEMOTAXIS ASSAYS” (The General Hospital Corporation, priority 2013, published 2020)
# Key:
# [1] = test system: human neutrophils; assay: Inter-species microfluidic neutrophil chemotaxis from one droplet of whole blood: human; assay type: cell-based; conditions: for percentage of neutrophils that migrated: 2 μL whole blood
# Description: (§1) The microfluidic device to study mouse, rat and human neutrophil chemotaxis from one droplet of whole blood was designed with three main components: focal chemoattractant chambers (FCCs) (200×200 μm), a central whole-blood loading chamber, and migration channels containing RBC filtering regions. The filter for each migration channel included 10 short channels (Length ˜75 μm) with a 3.5 μm narrowing region (‘pinch’) connected horizontally through an approximately 200-μm-long channel to create 90° bending sections capable of trapping the RBCs to prevent them from dispersing into the rest of the migration channel. All migration channels were designed to be 12 μm wide and 3 μm high to establish only a single column of RBCs for efficient trapping while allowing active mouse, rat and human neutrophils to easily migrate through. The devices were fabricated as described above in Example 2.
# (§2) For humans, 50 μL of capillary blood was collected by pricking a finger of healthy volunteers. For mice, 50 μL of capillary blood was collected by the facial vein method (Institutional animal care and use Protocol #2007N000136) requiring no anesthesia. For rats, 50 μL of venous blood was collected from the tail vein (Institutional animal care and use Protocol #2012N000034) using 1-2% Isoflurane inhalant. The blood was then pipetted into an eppendorf tube containing a mixed solution of HBSS media, heparin anti-coagulant (1.65 USP/50 μL of blood), and Hoechst stain (10 μL, 32.4 μM). The eppendorf tube was then incubated for 10 minutes at 37° C. and 5% CO2 to allow for proper staining of the nuclei.
# (§3) All reagents and whole blood were pipetted into the device and there was no flow or requirement of external syringe pump. A gradient of the chemoattractant was established along the migration channels by diffusion between the chemoattractant chambers and the central loading chamber. Prior to cell loading and immediately after bonding to the well plate, donut-shaped devices were filled with the chemoattractant solution containing 25 nM of fibronectin (Sigma-Aldrich, St. Louis, Mo.). The well plate was then placed in a desiccator under vacuum to de-gas for 15 minutes to ensure proper filling of the chambers while the PDMS surface was still hydrophilic. Afterwards, the central whole-blood loading chamber and the outside region surrounding the donut were washed thoroughly in each well to establish the gradient along the migration channels. The wells of the plate were then filled with RPMI 1640 media and allowed to sit for a period of 15 minutes to generate stable chemoattractant gradients. Finally, using a gel-lading tip, 2 μL of whole blood was slowly pipetted into the central whole-blood loading chamber.
# (§4) Time-lapse imaging was performed on a Nikon Eclipse Ti microscope with 10-15× magnification and a biochamber heated to 37° C. with 5% CO2 and 80% humidity. […] For each experiment, at least 50 neutrophils were manually tracked. Directionality of primed neutrophils was quantified by counting the number of cells that followed the chemotactic gradient and turned at the bifurcation toward the chemoattractant chamber as opposed to the number of cells that exited the device to the peripheral region. Cell velocities were calculated using ImageJ (NIH). Total percentage of neutrophils to migrate was estimated using a COMSOL simulation model that estimated that 30.6% of area in whole blood loading chamber from which neutrophils could migrate in experimental time to be above critical gradient concentration. For an average human experiment, this would estimate ˜277 neutrophils per well that are exposed to chemoattractant gradient.
# [2] = test system: neutrophils; assay: Microfluidic neutrophil chemotaxis assay, blood of a burn patient (24% TBSA) over 3 weeks; assay type: cell-based, human; conditions: for neutrophil accumulation counts versus healthy volunteer: three weeks post-burn
# Description: Blood samples of 1 mL were collected from one burn patient suffering from 24% total body surface area (TBSA) burn. Procedures for fabricating the device, preparing the chemoattractant gradient, and performing time-lapse imaging were conducted as explained above with respect to examples 2-4.
# Neutrophil chemotaxis was monitored over a 3 week treatment period. FIG. 10A is a plot of neutrophil migration counts in the attractant chamber with no chemoattractant gradient, with fMLP chemoattractant gradient [100 nM], and with LTB4 chemoattractant gradient [100 nM]. FIG. 10B is a plot of velocity [μm/min] of neutrophils migrating to LTB4 compared with fMLP over a three week period. FIG. 10C is a plot of directionality index of neutrophils migrating to LTB4 compared with fMLP. All graphs correspond to average cell counts across 16 attractant chambers.
# [3] = test system: neutrophils; assay: Microfluidic neutrophil chemotaxis assay, healthy donor whole blood (finger prick, venous) and isolated neutrophils; assay type: cell-based, human; conditions: for neutrophils recruited from finger prick whole blood (count): average of 16 attractant chambers
# Description: Capillary blood (50 μL) was collected by pricking a finger of healthy volunteers. The blood was then pipetted into an eppendorf tube containing a mixed solution of HBSS media, heparin anti-coagulant (1.65 USP/50 μL of blood), and Hoescht stain (10 μL, 32.4 μM). […] Louis, Mo.) or Leukotriene B4 (LTB4) (Caymen Chemicals, Ann Arbor, Mich.) [100 nM] immediately after the PDMS donut-shaped device was bonded to the well plate. The chemoattractant solution also contained fibronectin [25 nM] (Sigma-Aldrich, St. Louis, Mo.) to promote neutrophil surface adhesion. The chemoattractant was pipetted into the whole blood loading chamber (WBLC) and directly around the circumference of the device. […] Afterwards, the central whole-blood loading chamber and the outside region surrounding the donut were washed thoroughly with Phosphate Buffered Saline (PBS) in each well to wash away excess chemoattractant. The wells of the plate were then filled with RPMI 1640 media and allowed to sit for a period of 15 minutes to generate stable chemoattractant gradients. […] Capillary blood (50 μL) was collected by pricking a finger of healthy volunteers. The blood was then pipetted into an eppendorf tube containing a mixed solution of HBSS media, heparin anti-coagulant (1.65 USP/50 μL of blood), and Hoescht stain (10 μL, 32.4 μM). […] For venous blood samples, 10 mL of peripheral blood was drawn from a health volunteer into tubes containing 33 US […] (Vacutainer, Becton Dickinson, Franklin Lakes, N.J.). […] To compare the whole blood results with neutrophil migration from an isolated sample, we also isolated human neutrophils from whole blood using HetaSep followed by the EasySep Human Neutrophil Enrichment Kits (STEMCELL Technologies Inc. Vancouver, Canada) following the manufacturer's protocol. […] Louis, Mo.) at a density of 40,000 cells/μL and kept at 37° C. cell until devices were properly primed. […] Directionality of primed neutrophils was quantified by counting the number of cells that followed the chemotactic gradient and turned at the bifurcation toward the chemoattractant chamber as opposed to the number of cells that exited the device to the peripheral region. Cell velocities were calculated using Image J (NIH) and data analysis with GraphPad Prism. Neutrophil migration toward different attractants (fMLP and LTB4) was also examined. […] The concentrations of the three different chemoattractants were varied from 10 nM to 50 nM to 100 nM. Solutions containing fibronectin [25 nM] and exclusive of fibronection were prepared. Finger prick blood and venous blood were obtained as described above in Example 3.
# [4] = test system: mouse neutrophils; assay: Inter-species microfluidic neutrophil chemotaxis from one droplet of whole blood: C57BL/6 and Sv129S6 mice; assay type: cell-based; conditions: for directionality of Sv129S6 mouse neutrophils compared with humans: Sv129S6 mouse versus human
# Description: as §1, §2, §3, §4
# [5] = test system: Wistar rat neutrophils; assay: Inter-species microfluidic neutrophil chemotaxis from one droplet of whole blood: Wistar rat; assay type: cell-based; conditions: for percentage of neutrophils that migrated: Wistar rat whole blood
# Description: as §1, §2
# All reagents and whole blood were pipetted into the device and there was no flow or requirement of external syringe pump. A gradient of the chemoattractant was established along the migration channels by diffusion between the chemoattractant chambers and the central loading chamber. Prior to cell loading and immediately after bonding to the well plate, donut-shaped devices were filled with the chemoattractant solution containing 25 nM of fibronectin (Sigma-Aldrich, St. Louis, Mo.). The well plate was then placed in a desiccator under vacuum to de-gas for 15 minutes to ensure proper filling of the chambers while the PDMS surface was still hydrophilic. […]
# Time-lapse imaging was performed on a Nikon Eclipse Ti microscope with 10-15× magnification and a biochamber heated to 37° C. with 5% CO2 and 80% humidity. […] Directionality of primed neutrophils was quantified by counting the number of cells that followed the chemotactic gradient and turned at the bifurcation toward the chemoattractant chamber as opposed to the number of cells that exited the device to the peripheral region. Cell velocities were calculated using ImageJ (NIH). […]
# [6] = 1 week after burn, 100 nM gradient, versus healthy volunteer
molecule,measurement,setting,value
"CCCCC/C=C\C[C@@H](O)/C=C/C=C/C=C\[C@@H](O)CCCC(=O)O [LTB4, Leukotriene B4]",percentage of neutrophils that migrated,[1],54.0±5.6%
same,neutrophil accumulation counts versus healthy volunteer,[2],in the normal range
same,reduction in neutrophil velocity,[2]; two weeks post-burn,40%
same,neutrophils recruited from finger prick whole blood (count),"[3]; 100 nM gradient, after 200 min",39±12 cells/device
same,neutrophil velocity,[3]; finger prick whole blood,20±7 μm/min
same,percentage of neutrophils that migrated,[4]; C57BL/6 mouse whole blood,52.7±24%
same,directionality of Sv129S6 mouse neutrophils compared with humans,[4],comparable
same,percentage of neutrophils that migrated,[4]; Sv129S6 mouse whole blood,99.5±13%
same,percentage of neutrophils that migrated,[5],2.8±1.1%
"CSCC[C@H](NC=O)C(=O)N[C@@H](CC(C)C)C(=O)N[C@@H](Cc1ccccc1)C(=O)O [fMLP, N-formyl-methionyl-leucyl-phenylalanine]",directional index of neutrophils,[1],0.85±0.06
same,velocity of neutrophils towards the chemoattractant,[1],23.4±5.4 μm/min
same,percentage of neutrophils that migrated,[1],55.8±19.8%
same,reduction in directionality,[2]; [6],50%
same,reduction in neutrophil velocity,[2]; [6],75%
same,neutrophil accumulation counts versus healthy volunteer,[2],lower than the average healthy volunteer count
same,"number of cells accumulating, above the normal healthy volunteer range","[2]; two weeks post burn, patient had fever",15%
same,reduction in neutrophil velocity,[2]; two weeks post-burn,60%
same,neutrophils recruited from finger prick whole blood (count),"[3]; 100 nM gradient, after 200 min",86±7 cells/device
same,neutrophil accumulation numbers,"[3]; 100 nM gradient, after 3.5 hours, venous, finger prick and isolated neutrophil sources",around 135±20 cells/device
same,average neutrophil migration counts in 6 separate devices,"[3]; 100 nM gradient, finger prick whole blood of one healthy donor, after 200 min",83±12 cells
same,"neutrophil migration counts per chamber, average of healthy donors","[3]; 100 nM gradient, finger prick whole blood, after 200 min, 5 out of 7 donors clustered around it",92±35 cells
same,time until neutrophils began migrating towards the gradient,"[3]; 100 nM gradient, venous and finger prick whole blood and isolated neutrophils",≤ 20 min
same,neutrophil count recruited relative to LTB4,"[3]; 100 nM gradients, finger prick whole blood, 200 min",two-fold higher count
same,neutrophil velocity,[3]; finger prick whole blood,19 ±6 μm/min
same,directional index of neutrophils,[4]; C57BL/6 mouse,0.61±0.07
same,velocity of neutrophils towards the chemoattractant,[4]; C57BL/6 mouse,13±7.4 μm/min
same,"velocity of C57BL/6 neutrophils, fold lower than Sv129S6, rat or human","[4]; C57BL/6 mouse versus Sv129S6, rat, human",~2.5 fold
same,directional index of neutrophils,[4]; Sv129S6 mouse,0.82±0.06
same,velocity of neutrophils towards the chemoattractant,[4]; Sv129S6 mouse,19.7±8.7 μm/min
same,percentage of neutrophils that migrated,[5],10.9±8.5%
same,directional index of neutrophils,[5]; rat,0.62±0.12
same,velocity of neutrophils towards the chemoattractant,[5]; rat,26.2±5.9 μm/min
fibronectin,effect of inclusion in the chemoattractant solution on final neutrophil counts migrating towards fMLP,"[3]; 25 nM, pin prick and venous blood",does not appear to change final neutrophil counts
"C5a: the protein fragment C5a, neutrophil attractant (protein, UniProt P01031 678-751, looked up, C5a anaphylatoxin, the protein fragment C5a, neutrophil attractant) C5a anaphylatoxin: TLQKKIEEIAAKYKHSVVKKCCYDGACVNNDETCEQRAARISLGPRCIKAFTECCVVASQLRANISHKDMQLGR",percentage of neutrophils activated,[1],63.3±7.6%
same,percentage of neutrophils that migrated in response to the chemoattractant in the FCC,[1],26.8±5.9%
same,percentage of neutrophils activated,[4]; Sv129S6 mouse,18.3±3%
same,directionality of Sv129S6 mouse neutrophils compared with humans,[4],lower than in humans
same,migration pattern of activated mouse neutrophils,[4]; mouse,random migration
same,percentage of neutrophils that migrated in response to the chemoattractant in the FCC,[4]; mouse (Sv129S6),1±0.8%
